Data published in the supplement of paper PMC10307832.

Experiments:
Experiment in all cases: relative viability (nuclei count vs DMSO), 5 days (fraction); higher = more cells survive
ALW-II-49-7 + Dasatinib = compound: Cc1ccc(C(=O)Nc2cccc(C(F)(F)F)c2)cc1Nc1cncc(C(N)=O)c1 [ALW-II-49-7] + Cc1nc(Nc2ncc(C(=O)Nc3c(C)cccc3Cl)s2)cc(N2CCN(CCO)CC2)n1 [Dasatinib] (partner 0.075 µM)
Procedure, shortened: (§1)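 One day after seeding in 1536-well plates, lung cancer cell lines were dosed by pin tool. Dosing was either single-drug or a fixed anchor-drug dose plus five library-drug doses (not always all listed) in √10 steps. After 5 days, nuclei were stained in one fix-and-stain step and counted on 4× images, and relative viability is the nuclei count of treated wells over that of vehicle wells, given as the median of duplicate plates.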

ALW-II-49-7 + Phenformin = compound: Cc1ccc(C(=O)Nc2cccc(C(F)(F)F)c2)cc1Nc1cncc(C(N)=O)c1 [ALW-II-49-7] + N=C(N)NC(=N)NCCc1ccccc1 [Phenformin] (partner 250 µM)
Procedure, shortened: as §1

XMD13-2 + Tozasertib = compound: C1CC1C(=O)NC2=NNC3=C2C=CC(=C3)C4=CC(=CC=C4)C(=O)NC5CC5 [XMD13-2] + Cc1cc(Nc2cc(N3CCN(C)CC3)nc(Sc3ccc(NC(=O)C4CC4)cc3)n2)n[nH]1 [Tozasertib] (partner 0.1 µM)
Procedure, shortened: as §1

ALW-II-49-7 + Trametinib = compound: Cc1ccc(C(=O)Nc2cccc(C(F)(F)F)c2)cc1Nc1cncc(C(N)=O)c1 [ALW-II-49-7] + CC(=O)Nc1cccc(-n2c(=O)n(C3CC3)c(=O)c3c(Nc4ccc(I)cc4F)n(C)c(=O)c(C)c32)c1 [Trametinib] (partner 0.02 µM)
Procedure, shortened: as §1

Cell Line | relative viability (ALW-II-49-7 + Dasatinib; first compound 0.08 µM) | relative viability (ALW-II-49-7 + Dasatinib; first compound 0.253 µM) | relative viability (ALW-II-49-7 + Dasatinib; first compound 0.8 µM) | relative viability (ALW-II-49-7 + Dasatinib; first compound 2.53 µM) | relative viability (ALW-II-49-7 + Dasatinib; first compound 8 µM) | relative viability (ALW-II-49-7 + Phenformin; first compound 0.08 µM) | relative viability (ALW-II-49-7 + Phenformin; first compound 0.253 µM) | relative viability (ALW-II-49-7 + Phenformin; first compound 0.8 µM) | relative viability (ALW-II-49-7 + Phenformin; first compound 2.53 µM) | relative viability (ALW-II-49-7 + Phenformin; first compound 8 µM) | relative viability (XMD13-2 + Tozasertib; first compound 0.05 µM) | relative viability (XMD13-2 + Tozasertib; first compound 0.1581 µM) | relative viability (XMD13-2 + Tozasertib; first compound 0.5 µM) | relative viability (XMD13-2 + Tozasertib; first compound 1.581 µM) | relative viability (XMD13-2 + Tozasertib; first compound 5 µM) | relative viability (ALW-II-49-7 + Trametinib; first compound 0.08 µM) | relative viability (ALW-II-49-7 + Trametinib; first compound 0.253 µM) | relative viability (ALW-II-49-7 + Trametinib; first compound 0.8 µM) | relative viability (ALW-II-49-7 + Trametinib; first compound 2.53 µM) | relative viability (ALW-II-49-7 + Trametinib; first compound 8 µM)
SK-MES-1 | 0.353 | 0.351 | 0.296 | 0.33 | 0.222 | 0.644 | 0.637 | 0.625 | 0.577 | 0.512 | 0.998 | 0.879 | 0.919 | 0.804 | 0.72 | 0.573 | 0.628 | 0.562 | 0.6 | 0.447
NCI-H1944 | 0.206 | 0.237 | 0.232 | 0.228 | 0.227 | 0.193 | 0.231 | 0.18 | 0.176 | 0.138 | 0.275 | 0.243 | 0.229 | 0.239 | 0.221 | 0.405 | 0.427 | 0.418 | 0.339 | 0.405
HCC-78 | 0.475 | 0.466 |  | 0.361 | 0.383 | 0.718 | 0.745 |  | 0.677 | 0.633 | 0.362 | 0.436 | 0.372 | 0.346 | 0.282 | 0.867 | 0.702 | 0.633 | 0.572 | 0.78
PC-3 [JPC-3] | 0.827 | 0.916 | 0.929 | 0.951 | 0.854 | 0.486 | 0.461 | 0.456 | 0.448 | 0.452 | 0.887 | 0.911 | 0.902 | 0.908 | 0.874 | 0.676 | 0.786 | 0.745 | 0.809 | 0.847
LCLC-103H | 0.392 | 0.429 | 0.393 | 0.419 | 0.411 | 0.306 | 0.343 | 0.281 | 0.288 | 0.335 | 0.542 | 0.326 | 0.492 | 0.545 | 0.416 | 0.667 | 0.748 | 0.735 | 0.712 | 0.677
EKVX | 0.382 | 0.481 | 0.546 | 0.425 | 0.454 | 0.233 | 0.229 | 0.215 | 0.261 | 0.224 | 0.468 | 0.414 | 0.405 | 0.394 | 0.45 | 0.266 | 0.347 | 0.482 | 0.317 | 0.298
NCI-H460 | 0.492 | 0.583 | 0.563 | 0.423 | 0.507 | 0.425 | 0.414 | 0.561 | 0.559 | 0.372 | 0.529 | 0.407 | 0.472 | 0.474 | 0.415 | 0.133 | 0.17 | 0.142 | 0.118 | 0.101
NCI-H2170 | 0.725 | 0.531 | 0.608 | 0.512 | 0.614 | 0.411 | 0.435 | 0.432 | 0.387 | 0.346 | 0.646 | 0.737 | 0.774 | 0.672 | 0.719 | 0.925 | 0.937 | 0.977 | 0.924 | 0.854
